Experimental data reported in US11319305B2, “Pyrimidine sulfamide derivative and preparation method and medical application thereof” (SHIJIAZHUANG SAGACITY NEW DRUG DEVELOPMENT CO., LTD., priority 2017, dated 2022).

Experiments:
human ETB receptor = biological target: T1, human ETB receptor (Homo sapiens, UniProt P24530); assay: In vitro antagonistic effect against human ETB receptor, Ca2+ signal in transfected CHO cells; format: cell-based; conditions: response to 0.3 nM endothelin-1
T1 construct: host or cells: CHO cells
T1 sequence (P24530 27-442): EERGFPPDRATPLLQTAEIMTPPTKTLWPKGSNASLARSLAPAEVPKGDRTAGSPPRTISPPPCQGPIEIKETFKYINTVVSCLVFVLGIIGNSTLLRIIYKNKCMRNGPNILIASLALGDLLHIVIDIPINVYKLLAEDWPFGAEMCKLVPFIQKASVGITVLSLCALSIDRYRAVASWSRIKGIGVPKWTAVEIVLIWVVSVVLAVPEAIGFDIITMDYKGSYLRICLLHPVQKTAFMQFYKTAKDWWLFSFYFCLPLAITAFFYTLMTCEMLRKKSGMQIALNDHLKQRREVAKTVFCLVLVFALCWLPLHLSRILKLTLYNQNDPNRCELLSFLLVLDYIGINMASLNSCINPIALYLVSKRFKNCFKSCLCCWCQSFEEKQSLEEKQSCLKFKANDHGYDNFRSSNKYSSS
Method: Antagonist activity of the compound against human ETB receptors expressed in transfected CHO cells was evaluated by measuring the effect of the compound on the changes in the cytoplasmic Ca^2+ ion signal induced by human ETB receptor agonists. The functional activity of the ETB receptor antagonistic effect was tested in Eurofins-Cerep SA according to current standard procedures.
1. Cells were suspended in DMEM buffer (Invitrogen) and then distributed in 384-well plate (100 μL/well) at a density of 3×10^4 cells/well;
(§1) 2. Probenecid in HBSS buffer (Invitrogen) supplemented with 20 mM Hepes (Invitrogen) (pH 7.4) was mixed with fluorescent probe (Fluo4 NW, Invitrogen), the mixture was added to each wells, then balanced with cells at 37° C. for 60 minutes, and then balanced with cells at 22° C. for 15 minutes;
(§2) 3. The test plate was placed in a microplate reader (CellLux, PerkinElmer), a DMSO solution or HBSS buffer with an appropriate concentration of the test compound and the positive control was added, and 0.3 nM endothelin-1 or HBSS buffer (base control) was added after 5 minutes, and then the change in fluorescence intensity proportional to the concentration of Ca^2+ ions of […] was measured;
4. Results were shown as the percent inhibition of control response to 0.3 nM endothelin-1;
5. Standard positive control was BQ-788, several concentrations were tested in each experiments. The data was analyzed using Prism to generate a concentration-response curve, and IC50 values of the compounds were calculated.

[1] = Pharmacokinetics in SD rats; format: in vivo; conditions: male, Sprague-Dawley, rat, plasma; for half-life / clearance: intravenous injection 2 mg/kg; for clearance: iv, 2 mg/kg, read-out: Plasma clearance rate
Excerpt: Experimental Embodiment 6: Evaluation on the Pharmacokinetic of the Compounds in Rats
SD male rats were selected as the test animals in this study, and the drug concentration in plasma of the rats at different time points via intravenous injection or oral gastric administration of the test compound was quantitatively measured using LC/MS/MS method to evaluate the pharmacokinetic characteristics of the test compounds in rats.
Sprague Dawley (SD) rats (male, 200-300 g, 7-10 weeks old, Beijing Viton Lihua or Shanghai Slake).
A clear solution of the test compound was injected into SD rats via the tail vein (overnight fasting), or administrated orally by gavage (overnight fasting). For intravenous administration, 200 μL of jugular blood was collected via vein puncture at 0 hour (pre-dosing) and at 0.0833, 0.25, 0.5, 1, 2, 4, 6, 8 and 24 hours after dosing, which was then placed in an anticoagulation tube supplemented with EDTA-K2 (Suzuki Healthcare Medical Co., Ltd.). The mixture in the anticoagulation tube was vortexed to mix thoroughly at 4° C., and then centrifuged at 13000 rpm for 10 minutes to collect the plasma. For oral gavage administration, 200 μL of jugular blood was collected via vein puncture at 0 hour (pre-dosing) and at 0.5, 1, 2, 4, 6, 8 and 24 hours after dosing, which was then placed in an anticoagulation tube supplemented with EDTA-K2 (Suzuki Healthcare Medical Co., Ltd.). The mixture in the anticoagulation tube was vortexed to mix thoroughly, and then centrifuged at 13000 rpm for 10 minutes to collect the plasma. Plasma drug concentration was measured by LC/MS/MS method, and related pharmacokinetic parameters were calculated using WinNonlin™ Version 6.3 (Pharsight, Paul View, Calif.) pharmacokinetics software in non-room model linear logarithmic trapezoids method.

human ETA receptor = biological target: T2, human ETA receptor (Homo sapiens, UniProt P25101); assay: In vitro antagonistic effect against human ETA receptor, Ca2+ signal in SK-N-MC cells; format: cell-based; conditions: for IC50: SK-N-MC cells, response to 1 nM endothelin-1; for ETA/ETB selectivity: ratio of ETB IC50 to ETA IC50
T2 construct: endogenously expressed human ETA receptors in SK-N-MC cells; host or cells: SK-N-MC cells
T2 sequence (P25101 21-427): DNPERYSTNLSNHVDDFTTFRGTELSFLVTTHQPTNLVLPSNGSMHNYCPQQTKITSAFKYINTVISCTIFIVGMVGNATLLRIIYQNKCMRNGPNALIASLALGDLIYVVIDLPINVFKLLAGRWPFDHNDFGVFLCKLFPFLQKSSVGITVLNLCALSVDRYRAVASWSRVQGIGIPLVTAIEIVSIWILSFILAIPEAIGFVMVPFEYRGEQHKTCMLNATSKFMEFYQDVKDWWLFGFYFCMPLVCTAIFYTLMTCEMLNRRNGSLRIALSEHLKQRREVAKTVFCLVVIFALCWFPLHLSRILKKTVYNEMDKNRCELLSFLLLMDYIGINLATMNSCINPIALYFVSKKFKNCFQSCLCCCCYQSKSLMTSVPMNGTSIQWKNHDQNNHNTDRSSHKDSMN
Method: Experimental Embodiment 1: In Vitro Test of Antagonistic Effect Against Human ETA Receptor
Antagonistic activity of the compounds against endogenously expressed human ETA receptors in SK-N-MC cells was evaluated by measuring the effect of compounds on the changes in cytoplasmic Ca^2+ ion signal induced by human ETA receptor agonists using fluorescence detection methods. The functional activity of the ETA receptor antagonistic effect was tested in Eurofins-Cerep SA according to current standard procedures.
1. Cells were suspended in Dulbecco's modified Eagle medium solution (DMEM, Invitrogen) supplemented with 1% FCSd, then distributed in 384-well plate (100 μL/well) at a density of 5×10^4 cells/well;
as §1, with “Hank's balanced salt solution (HBSS, Invitrogen)” for “HBSS buffer (Invitrogen)”, “4-(2-hydroxyethyl)piperazine-1-ethanesulfonic acid (Hepes, Invitrogen)” for “Hepes (Invitrogen)”
as §2, with “1” for “0.3”
5. Standard positive control was BQ-123, several concentrations were tested in each experiments. The data was analyzed using Prism to generate a concentration-response curve, and IC50 values of the compounds were calculated.

IC50 (human ETB receptor) [µM]	half-life [1] [h]	clearance [1] [mL/min/kg]	IC50 (human ETA receptor) [µM]	ETA/ETB selectivity (human ETA receptor)	bioavailability ([1]; po, 10 mg/kg, oral administration 10 mg/kg) [%]	Structure (SMILES)
85	1.26	< 5	0.0028	30300		NS(=O)(=O)Nc1ncnc(OCCOc2ncc(Br)cn2)c1-c1ccc2c(c1)OCO2 [WX001]
66	1.14	< 5	0.0014	47100	> 70	COCCNS(=O)(=O)Nc1ncnc(OCCOc2ncc(Br)cn2)c1-c1ccc2c(c1)OCO2 [WX013]
